In patent publication US20020091086A1, “Peptides that block viral infectivity and methods of use thereof” (priority 1999, published 2002):
Values joined by “and” are separate entries in the source; they are usually repeats but may differ in a detail not shown here. Equal entries are not always repeated. Peptide text beside a SMILES is read from it.

How the values were obtained:
Jurkat-tat III cells = assay: in vitro uptake of 14C-labelled GPG-NH2 into cells; assay type: in vitro ADME; details: 165 nCi (0.7 μM)
Protocol: (§1) Additionally, the in vitro uptake of small peptides from the culture medium into the cells was studied in a series of experiments. Accordingly, HUT78, Jurkat-tat III, and MT-2 cells were incubated with ^14C-labelled GPG-NH2 165 nCi (equivalent to 0.7 μM of GPG-NH2). An uptake of the small peptide was observed and between 8% (Jurkat-tat III cells) and 20% (HUT78 cells) of the GPG-NH2 was incorporated in the cells.

HUT78 cells = assay: in vitro uptake of 14C-labelled GPG-NH2 into cells; assay type: in vitro ADME; details: 165 nCi (0.7 μM)
Protocol: as §1

[1] = storage stability of capsules; assay type: physicochemical; details: Five-hundred milligram capsules; stored at 4° C.
Excerpt: Compositions of the peptide agents suitable for gastrointestinal administration include, but not limited to, pharmaceutically acceptable powders, pills or liquids for ingestion and suppositories for rectal administration. Due to the most common routes of HIV infection and the ease of use, gastrointestinal administration, particularly oral, is the preferred embodiment of the present invention. […] As previously shown in other virus-host systems, specific antiviral activity of small peptides can be detected in serum after oral administration. (Miller et al., Appl. Microbiol., 16:1489 (1968)). Since small peptides apparently evade degradation by the patient's digestive system, they are ideal for oral administration.

polio viruses = assay type: cell-based
HIV-1 strain HTLV-IIIB = details: passaged in serial dilutions for more than six months
[2] = test system: HIV-1 isolate p7227 (high AZT); assay: resistant HIV-1 isolates in PBMC, p24 ELISA; assay type: cell-based; details: GPG 100 μM, 14 days post infection
recombinant p24 = biological target: T1, recombinant p24 (Human immunodeficiency virus type 1 group M subtype B, UniProt P04591); assay: dialysis-based binding assay with 14C-GPG-NH2, p24; design: species or system HIV-1
T1 construct: purchased AIDS program, NCIB (gift, not bought)
Protocol: A dialysis-based binding assay was conducted using a dialysis membrane with a pore size of less than 10 kD. (Slide-A-Lyzer, Pierce). Fifty microliters of a 10 μM stock of the recombinant proteins p24 and gp120 (gifts from the AIDS program, NCIB) and BSA (Sigma) were introduced into separate dialysis membranes and the proteins were dialyzed at 4° C. for 2 days against a 500 ml solution composed of 150 mM NaCl and 50 mM Tris-HCl, pH 7.4 buffer and 27.5 μM of ^14C-GPG-NH2 (Amersham Ltd. UK). Subsequently, ten or five microliter aliquots of the dialyzed p24, gp120, and BSA were removed and mixed with 3 ml of ReadySafe (Beckman) in a scintillation vial. The C^14 was then detected by scintillation counting.

GPG-deleted mutant mp10 = assay: infectivity in MT-2 cells, p24 ELISA, GPG-deleted mutant mp10; assay type: cell-based, HIV-1
Protocol: Accordingly, the ability of GPG-NH2 to inhibit the infectivity of wild-type and V3-loop deletion mutants (GPG domain) in MT-2 cells was determined. In these experiments, approximately 200,000 MT-2 cells were infected with HIV-1Bru wild-type and GPG-deleted mutants mp8 and mp10 at 25 TCID50 to test the inhibitory effect of GPG-NH2 The MT-2 cells were resuspended in 1 ml of RPMT 1640 medium supplemented with 10% (v/v) heat-inactivated fetal bovine serum (FBS, GIBCO), penicillin (100μ/ml), streptomycin (100μ/ml) and Polybrene (Sigma 2 μg/ml) with or without the presence of GPG-NH2 at concentration 20 of μM and 100 μM. Thereafter, viruses were added at 25 TCID50 in a volume of 20-30 μl. Cells were incubated with virus at 37° C. for 16 hr then loosely pelleted by centrifugation at 170×g for 7 minutes. The cells were then washed three times in RPMI medium without peptides at room temperature by cell sedimentation at 170×g for 7 minutes as above. After the final wash, the cells were resuspended in RPMI culture medium in 24-well plate (Costar corporation) then kept at 37° C. in 5% CO2 with humidity. Culture supernatants were collected when medium was changed at day 4, 7, 11 and 14 post infection. To monitor the replication of virus, HIV-1 p24 antigen protein in the supernatants from day 7 and 14 was assayed by a ELISA kit (Abbott Laboratories) which has a linear dose-response range from 20 pg to 640 pg of p24 per ml and the p24 amount can be determined with aid of the regression line.

[3] = test system: HIV-1 isolate p7300 (low PI); assay: resistant HIV-1 isolates in PBMC, p24 ELISA; assay type: cell-based; details: GPG 100 μM, 14 days post infection
[4] = test system: HIV-1 isolate p7163 (inter AZT); assay: resistant HIV-1 isolates in PBMC, p24 ELISA; assay type: cell-based; details: GPG 100 μM, 14 days post infection
HIV-1 specific protease = HIV-1 specific protease (Human immunodeficiency virus type 1 group M subtype B, UniProt P04585); assay: activity of the HIV-1 specific protease; assay type: biochemical
[5] = stability in human plasma by thin layer chromatography; assay type: in vitro ADME; details: 37° C.; 30 minutes, two hours, eight hours
Protocol: The stability of GPG-NH2 in human plasma was also assessed chemically by thin layer chromatography (TLC). (See FIG. 7). In this experiment, ^14C GPG-NH2 was incubated with human plasma at 37° C. for 30 minutes, two hours, or eight hours and then the proteins were separated by TLC and were visualized by exposure of the chromatograph to autoradiography film. As shown in FIG. 7 (lanes Hp0, Hp0.5, Hp2, and Hp8), a slight shift in mobility of the small peptide was observed. […] Mass-spectrometry analysis (electrospray analysis) of the TLC spots verified that all spots, including the spot with increased mobility, were GPG-NH2.

HIV-1 DNA = assay: Southern blot of proviral DNA in HIV-1 infected H-9 cells; assay type: cell-based; details: 0-2,000 μM; first 24 h
Protocol: To study proviral DNA and viral RNA synthesis, DNA and RNA from HIV-1 infected H-9 cells cultured in the presence of a small peptide were prepared at various time points (0-48 h).

## NCC(=O)N1CCC[C@H]1C(=O)NCC(N)=O [GPG-NH2, glycyl-prolyl-glycine amide] (H-Gly-Pro-Gly-NH2)
Jurkat-tat III cells
  GPG-NH2 incorporated in the cells: 8%
HUT78 cells
  GPG-NH2 incorporated in the cells: 20%
[1]
  stability on storage: ≥ 12 months
Polio viruses
  inhibition of polio virus: failed inhibit either influenza or polio viruses
HIV-1 strain HTLV-IIIB
  development of resistance in vitro: without overt signs of development of resistance
[2]
  % reduction: (100%)
  HIV-1 p24: <500 pg/mL
Recombinant p24; dialysis 2 days at 4° C. against 27.5 μM 14C-GPG-NH2, buffer 1.816
  radioactive GPG-NH2 associated with p24: 13.712 μCi/ml
Recombinant p24; dialysis against 27.5 μM 14C-GPG-NH2
  times buffer, p24: 7.5 times buffer and 7.551 times buffer
GPG-deleted mutant mp10; GPG 20 μM, Day 7
  p24: 1560 pg/mL
  reduction (%): 50%
GPG-deleted mutant mp10; GPG 20 μM, Day 14
  p24: 51500 pg/mL
  reduction (%): 89%
GPG-deleted mutant mp10; GPG 100 μM, Day 7
  p24: 173 pg/mL
  reduction (%): 94%
GPG-deleted mutant mp10; GPG 100 μM, Day 14
  p24: 47700 pg/mL
  reduction (%): 90%
gp160
  N- or O-linked glycosylation of the virus protein: no effect
[3]
  % reduction: (100%)
  HIV-1 p24: <500 pg/mL
[4]
  % reduction: (100%)
  HIV-1 p24: <500 pg/mL
HIV-1 specific protease
  activity of the HIV-1 specific protease: not to affect
[5]
  TLC mobility after incubation in human plasma: no further change in mobility was observed at up to 8 hours
HIV-1 DNA
  HIV-1 entry and proviral DNA synthesis: no inhibitory effect
